Experiment [1] deals with OCI-AML5 (Acute Myeloid Leukemia). Briefly: Bliss excess, mean over the matrix (fraction); higher = more synergy. Summed up: (§1)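 After 24 hours at 37°C and 5% CO2 in 1536-well plates, cells in DMEM/F12 or RPMI plus 10% FBS received two-drug dose matrices for 72 hours. Viability came from CellTiter-Glo 2.0 luminescence and was scaled as inhibition, anchored at 0 by vehicle wells and at 1 by blank wells. Combination Emax is taken as the second-highest inhibition in the matrix, and Bliss excess as the observed combination effect less EA + EB − EA·EB, with EA and EB the single-agent effects.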

Experiment [2] has as its system EB-3 (Burkitt's Lymphoma). The experiment is described as above. In outline: as §1
For experiment [3], the system named is KYSE-70 (Esophageal Squamous Cell Carcinoma). Briefly: combination Emax (second highest fraction inhibited in the dose matrix, 72 h); higher = more inhibition; extreme values may be limits of the assay. Summed up:
as §1

Experiment [4] deals with SJRH30 (Rhabdomyosarcoma). Described as above. In outline:
as §1

In experiment [5] the test system is AsPC-1 (Pancreatic Carcinoma). The description is as above. In outline:
as §1

Experiment [6] relates to CML-T1 (Chronic Myelogenous Leukemia). The experiment is described as above. Summed up:
as §1

The subject of experiment [7] is SW684 (Other Solid Carcinomas). Described as above. Summed up:
as §1

In experiment [8] the test system is OVTOKO (Ovarian Carcinoma). The experiment is described as above. Summed up:
as §1

Experiment [9] deals with Becker (Low Grade Glioma). The description is as above. In outline:
as §1

For experiment [10], the system named is RL95-2 (Endometrial Carcinoma). The experiment is described as above. In outline:
as §1

Experiment [11] concerns RMG-I (Ovarian Carcinoma). Described as above. Summed up: as §1
Another experiment deals with RT4 (Bladder Carcinoma). Described as above. Summed up: as §1
Another experiment relates to HuO-3N1 (Osteosarcoma). Described as above. In outline:
as §1

Experiment [12] has as its system PANC-02-03 (Pancreatic Carcinoma). The description is as above. In outline:
as §1

For experiment [13], the system named is Caov-3 (Ovarian Carcinoma). The experiment is described as above. Summed up: as §1
Experiment [14] concerns RPMI-8866 (Chronic Myelogenous Leukemia). The experiment is described as above. Summed up:
as §1

For experiment [15], the system named is PC-14 (Lung Adenocarcinoma). The experiment is described as above. In outline:
as §1

For experiment [16], the system named is OV-90 (Ovarian Carcinoma). The experiment is described as above. In outline: as §1
The test system of experiment [17] is NCI-H1155 (Non-Small Cell Lung Carcinoma). The experiment is described as above. Summed up: as §1
Experiment [18] concerns LAMA-84 (Chronic Myelogenous Leukemia). The experiment is described as above. In outline:
as §1
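For Bliss excess, mean over the matrix in this document: after 72 h of two-drug dosing.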

On to `CCN(CCO)CCCOc1ccc2c(Nc3cc(CC(=O)Nc4cccc(F)c4)[nH]n3)ncnc2c1` [AZD2811] + C=CCn1c(=O)c2cnc(Nc3ccc(N4CCN(C)CC4)cc3)nc2n1-c1cccc(C(C)(C)O)n1 [AZD1775] (first compound max 1 µM, partner max 1 µM), for which the Bliss excess in [1] is -0.0295; in [2], -0.071. Moreover, the “combination Emax” value in [3] was determined as 0.549; in experiment [4], 0.827; in [5] it was 0.293; in experiment [6], 0.915; in experiment [7] it was 0.165; in experiment [8], 0.419. Besides, the “combination Emax” value in experiment [9] amounted to 0.167; in [10], 0.662; in [11], 0.256; in the experiment with RT4 (Bladder Carcinoma) it was 0.408; in the experiment on HuO-3N1 (Osteosarcoma) it was 0.233; in experiment [12] it was 0.538. The “combination Emax” value in experiment [13] was determined as 0.846; in experiment [14], 1; in experiment [15], 0.842; in experiment [16], 0.654; in experiment [17], 0.45; in experiment [18], 0.917.

For `CN(CCO)CC[C@H](CSc1ccccc1)Nc1ccc(S(=O)(=O)NC(=O)c2ccc(N3CCC([C@@H](O)c4ccccc4-c4ccc(Cl)cc4)CC3)cc2)cc1S(=O)(=O)C(F)(F)F` [AZD4320] + CCN(CCO)CCCOc1ccc2c(Nc3cc(CC(=O)Nc4cccc(F)c4)[nH]n3)ncnc2c1 [AZD2811] (first compound max 1 µM, 7x7, partner max 1 µM), the Bliss excess in [1] was -0.004; in [2], -0.0065. Besides, the “combination Emax” value in [3] was 0.391; in experiment [4], 0.503; in experiment [5], 0.541; in [6], 0.994; in [7], 0.158; in experiment [8] it was 0.166. In addition, the “combination Emax” value is 0.224 in experiment [9]; 0.92 in experiment [10]; 0.728 in [11]; 1 in the experiment on RT4 (Bladder Carcinoma); 0.152 with HuO-3N1 (Osteosarcoma); 0.179 in experiment [12]. The “combination Emax” value in [13] was 0.94; in experiment [14], 0.952; in experiment [15] it was 0.395; in experiment [16], 0.743; in [17], 0.918; in experiment [18] it was 0.906.

The values are drawn from the supplement of paper PMC11061612.
